From patent US20190262291A1, “METHODS AND COMPOSITIONS FOR ALLEVIATING MYOPATHY” (priority 2016, published 2019)
Read-outs that look alike come from different tables or passages of the source.

Experiments:
[1] = NOAEL for HMB oral ingestion in rats (Baxter et al.); format: in vivo, rat; details: for estimated human equivalent dose of rat NOAEL: in vivo, oral; for estimated human equivalent of NOAEL as total amount: assuming a body weight of 150 lbs
Description: This is an estimated human equivalent of 558 mg/kg and 665 mg/kg for men and women, respectively; assuming a body weight of 150 lbs equates to 38 g (males) and 45 g (females). […] Overall, standard doses of HMB appear to be well-tolerated over long periods of time.

[2] = tested on: patients with statin-induced myopathy (SIM); test: Example 1: HMB and leucic acid combination therapy in patients with statin-induced myopathy; format: in vivo, human; details: two patients with SIM on statin, summary
Description: The effects of combined administration of HMB and leucic acid was studied in two patients with statin-induced myopathy (SIM). Both patients enrolled were under the care of a board certified cardiologist. […] person with a history of PCI/coronary stent ramus intermedius; historically statin intolerant lipid disorder with LDL=168, total cholesterol=281, with triglycerides=316 on a hypolipidemic regimen of Welchol, 6 tabs/d (for a total of 1500-3000 mg/d) and Zetia, 10 mg/d; unable to achieve goal (i.e., LDL cholesterol <100 mg % in patients with coronary risk factors and <70 mg % in coronary patients (with previous myocardial infarction (MI), percutaneous coronary intervention (PCI), or coronary bypass surgery) as well as patients with peripheral vascular disease and diabetics) off statins and therefore begun on Vytorin, 10/40 mg daily+3-hydroxy 3-methyl butyrate (HMB) at 2 grams BID. […] person with angiographic small vessel disease; type 2 diabetes and type 2a hyperlipidemia; history of statin intolerance with myalgia, weakness and severely elevated CPKs (900-1000 range, normal 200); patient therefore treated with Welchol 6 grams/d and Zetia 10 mg/d with an LDL=185 on this regimen. The patient was subsequently placed on Crestor 20 mg/d+HMB 2 grams BID with a drop in LDL=49 and improved CPK levels (300-400 range).

[3] = tested on: rats; details: oral ingestion, cited from earlier work
[4] = tested on: Human; details: cited from earlier work
[5] = in vivo; cited from earlier work
[6] = towards oxygenation in humans; cited from earlier work

| Structure (SMILES) | estimated human equivalent dose of rat NOAEL ([1]; female, women) [mg/kg] | estimated human equivalent of NOAEL as total amount ([1]; females) [g] | estimated human equivalent dose of rat NOAEL ([1]; male, men) [mg/kg] | estimated human equivalent of NOAEL as total amount ([1]; males) [g] | resolution of SIM [2] | No Observed Adverse Effect Level (NOAEL) ([3]; female rats) [mg/kg] | No Observed Adverse Effect Level (NOAEL) ([3]; male rats) [mg/kg] | toxicological parameters in serum ([4]; 3 g HMB daily for up to 8 weeks, youth and older persons) | safety of long-term administration ([4]; 3 g daily, one year of administration) | toxic effects on serum parameters ([4]; approximately 6 g HMB daily (78 mg/kg) for one month, untrained young males subject to exercise) | basophils ([4]; half the dose (of approximately 6 g daily), considered to be insignificant) | tolerability ([4]; standard doses over long periods of time) | half-lives [5] | time to reach peak levels [5] | reaction half time [6] [min] |
| --- | --- | --- | --- | --- | --- | --- | --- | --- | --- | --- | --- | --- | --- | --- | --- |
| CC(C)(O)CC(=O)O [HMB, β-hydroxy β-methylbutyrate] | 665 | 45 | 558 | 38 | incomplete resolution of SIM | 4160 | 3490 | failed to alter toxicological parameters in serum | safe | did not show any toxic effects | spontaneous increase in basophils | well-tolerated | relatively short | quickly | – |
| CC(C)CC(O)C(=O)O (centres unmarked) [leucic acid, 2-hydroxy-4-methylpentanoic acid] | – | – | – | – | – | – | – | – | – | – | – | – | relatively short | quickly | 230 |
